Laboratory results published in publication PMC5100001, “Defining the extreme substrate specificity of Euonymus alatus diacylglycerol acetyltransferase, an unusual membrane-bound O-acyltransferase” (Bioscience Reports, 2016).

Target: T1, EaDAcT (Euonymus alatus diacylglycerol acetyltransferase) (Euonymus alatus, UniProt D6NSS8)
T1 construct: gene DAcT; full-length ORF in microsomes of S. cerevisiae H1246 (quadruple knockout); C-terminal HA tag printed for the pESC-URA coexpression construct; N-terminus MDAHQEIK translated from printed primer
Experiment: microsomal acyltransferase assay, ESI-MS quantification of sn-3 acyl TAG
Format: biochemical
Conditions: acyl donor 50 to 1500 uM, endogenous sn-1,2-DAG as acceptor, pH 7.5, 30 C

T1 sequence (D6NSS8 entry or part of it): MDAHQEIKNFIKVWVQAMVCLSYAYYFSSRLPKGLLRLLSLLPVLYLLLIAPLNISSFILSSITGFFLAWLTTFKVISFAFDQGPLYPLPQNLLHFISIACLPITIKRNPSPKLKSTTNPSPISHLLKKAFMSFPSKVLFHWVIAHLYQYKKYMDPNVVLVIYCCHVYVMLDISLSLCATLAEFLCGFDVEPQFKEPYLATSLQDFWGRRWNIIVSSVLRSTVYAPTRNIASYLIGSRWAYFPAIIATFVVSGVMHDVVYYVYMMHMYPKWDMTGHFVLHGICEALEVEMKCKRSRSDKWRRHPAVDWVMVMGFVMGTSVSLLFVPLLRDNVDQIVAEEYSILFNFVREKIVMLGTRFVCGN

**Q.** `CCCC(=O)SCCNC(=O)CCNC(=O)[C@H](O)C(C)(C)COP(=O)(O)OP(=O)(O)OC[C@H]1O[C@@H](n2cnc3c(N)ncnc32)[C@H](O)[C@@H]1OP(=O)(O)O` [butyryl-CoA] was tested. Which “microsomal acyltransferase assay, ESI-MS quantification of sn-3 acyl TAG” value (unlabelled) did it give?
**A.** Reaction rates with butyryl-CoA and hexanoyl-CoA were relatively similar to one another

**Q.** How did the “microsomal acyltransferase assay, ESI-MS quantification of sn-3 acyl TAG” value ([1,2-13C] labelled compound) turn out when `CC(=O)SCCNC(=O)CCNC(=O)[C@H](O)C(C)(C)COP(=O)(O)OP(=O)(O)OC[C@H]1O[C@@H](n2cnc3c(N)ncnc32)[C@H](O)[C@@H]1OP(=O)(O)O` [acetyl-CoA] was run?
**A.** higher rates of production formation were always achieved with acetyl-CoA compared with butyryl- or hexanoyl-CoA
